Experimental data reported in ChEMBL document CHEMBL3774390, “Azide-enolate 1,3-dipolar cycloaddition in the synthesis of novel triazole-based miconazole analogues as promising antifungal agents” (2016).
In brackets after ≈: the same amount, converted by molar mass.

Experiments:
Type in all cases: functional
Cyberlindnera jadinii = assay: Antifungal activity against Candida utilis ATCC 9226 by M27-A3 protocol-based broth microdilution method; details: Williopsis jadinii
Candida albicans = assay: Antifungal activity against Candida albicans ATCC 10231 by M27-A3 protocol-based broth microdilution method
Candida tropicalis = assay: Antifungal activity against Candida tropicalis ATCC 13803 by M27-A3 protocol-based broth microdilution method
Aspergillus fumigatus = assay: Antifungal activity against Aspergillus fumigatus ATCC 16907 by M38-A protocol-based broth microdilution method
[1] = Antifungal activity against Trichosporon cutaneum ATCC 28592 by M38-A protocol-based microdilution method; details: Cutaneotrichosporon cutaneum
Rhizopus arrhizus = assay: Antifungal activity against Rhizopus oryzae ATCC 10329 by M38-A protocol-based microdilution method
Mucor hiemalis = assay: Antifungal activity against Mucor hiemalis ATCC 8690 by M38-A protocol-based microdilution method

SMILES	MIC (Cyberlindnera jadinii) [µg/mL]	MIC (Candida albicans) [µg/mL]	MIC (Candida tropicalis) [µg/mL]	MIC (Aspergillus fumigatus) [µg/mL]	MIC [1] [µg/mL]	MIC (Rhizopus arrhizus) [µg/mL]	MIC (Mucor hiemalis) [µg/mL]
CSc1ccc(-c2cnnn2C(Cn2ccnc2)c2ccc(Cl)cc2Cl)cc1 (stereo unspecified)	16 (≈ 37.2 µM)	4 (≈ 9.29 µM)	1 (≈ 2.32 µM)	16 (≈ 37.2 µM)	16 (≈ 37.2 µM)	16 (≈ 37.2 µM)	16 (≈ 37.2 µM)
CCC(C)n1ncn(-c2ccc(N3CCN(c4ccc(OCC5COC(Cn6cncn6)(c6ccc(Cl)cc6Cl)O5)cc4)CC3)cc2)c1=O (stereo unspecified) [ITRACONAZOLE]	0.06 (≈ 0.085 µM)	0.03 (≈ 0.0425 µM)	0.03 (≈ 0.0425 µM)	0.25 (≈ 0.354 µM)	1 (≈ 1.42 µM)	0.5 (≈ 0.709 µM)	1 (≈ 1.42 µM)
O=C(c1ccccc1)c1nnn(C(Cn2ccnc2)c2ccc(Cl)cc2Cl)c1-c1ccccc1 (stereo unspecified)	16 (≈ 32.8 µM)	0.03 (≈ 0.0614 µM)	0.06 (≈ 0.123 µM)	16 (≈ 32.8 µM)	16 (≈ 32.8 µM)	8 (≈ 16.4 µM)	16 (≈ 32.8 µM)
CCCCC(C)(C)c1cnnn1C(Cn1ccnc1)c1ccc(Cl)cc1Cl (stereo unspecified)	2 (≈ 4.92 µM)	0.03 (≈ 0.0738 µM)	0.03 (≈ 0.0738 µM)	0.5 (≈ 1.23 µM)	8 (≈ 19.7 µM)	8 (≈ 19.7 µM)	16 (≈ 39.4 µM)
CCCCCc1c(S(=O)(=O)c2ccccc2)nnn1C(Cn1ccnc1)c1ccc(Cl)cc1Cl (stereo unspecified)	0.25 (≈ 0.482 µM)	0.06 (≈ 0.116 µM)	0.06 (≈ 0.116 µM)	2 (≈ 3.86 µM)	0.12 (≈ 0.231 µM)	0.5 (≈ 0.964 µM)	0.25 (≈ 0.482 µM)
Clc1ccc(C(Cn2ccnc2)n2nncc2C2CCCCC2)c(Cl)c1 (stereo unspecified)	16 (≈ 41 µM)	16 (≈ 41 µM)	8 (≈ 20.5 µM)	16 (≈ 41 µM)	16 (≈ 41 µM)	2 (≈ 5.12 µM)	0.12 (≈ 0.307 µM)
CC(=O)c1nnn(C(Cn2ccnc2)c2ccc(Cl)cc2Cl)c1C (stereo unspecified)	16 (≈ 43.9 µM)	16 (≈ 43.9 µM)	16 (≈ 43.9 µM)	16 (≈ 43.9 µM)	16 (≈ 43.9 µM)	8 (≈ 22 µM)	16 (≈ 43.9 µM)
N#Cc1nnn(C(Cn2ccnc2)c2ccc(Cl)cc2Cl)c1-c1ccccc1 (stereo unspecified)	16 (≈ 39.1 µM)	16 (≈ 39.1 µM)	16 (≈ 39.1 µM)	16 (≈ 39.1 µM)	16 (≈ 39.1 µM)	16 (≈ 39.1 µM)	16 (≈ 39.1 µM)
